Experimental data taken from PMC9618804, “CXCR1 and its downstream NF-κB inflammation signaling pathway as a key target of Guanxinning injection for myocardial ischemia/reperfusion injury” (Frontiers in Immunology, 2022).

Columns and labels:
mCXCR1 = target: T1, mCXCR1 (Mus musculus, UniProt Q810W6); experiment: CETSA and isothermal dose-response (ITDRF-CETSA) in cell lysate, Western blot; assay type: biochemical; conditions: HL-1 lysate; 20 uM DSS, 30 min at room temperature, 3 min at 37-73 C; ITDRF 0-20 uM at 61 C
T1 construct: gene Cxcr1; native full-length receptor in freeze-thaw lysate supernatant of mouse HL-1 cardiomyocytes; detected by Western blot (anti-CXCR1 bs-1009R)
T1 sequence (Q810W6 1-351): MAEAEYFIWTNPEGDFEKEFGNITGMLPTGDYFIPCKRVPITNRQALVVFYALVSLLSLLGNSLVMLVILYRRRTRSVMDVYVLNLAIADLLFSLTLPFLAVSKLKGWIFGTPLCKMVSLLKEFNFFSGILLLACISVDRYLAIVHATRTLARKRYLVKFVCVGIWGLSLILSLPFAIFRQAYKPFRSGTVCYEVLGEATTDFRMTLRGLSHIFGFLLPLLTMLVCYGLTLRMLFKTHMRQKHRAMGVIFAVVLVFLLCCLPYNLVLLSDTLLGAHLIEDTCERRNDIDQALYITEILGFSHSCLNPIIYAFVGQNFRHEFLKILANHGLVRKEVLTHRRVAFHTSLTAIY

hCXCR1 = target: T2, hCXCR1 (Homo sapiens, UniProt P25024); experiment: CETSA in cell lysate, Western blot; assay type: biochemical; conditions: AC-16 lysate; 20 uM DSS, 30 min at room temperature, 3 min at 37-73 C
T2 construct: gene CXCR1; native full-length receptor in freeze-thaw lysate supernatant of human AC-16 cardiomyocytes; detected by Western blot
T2 sequence (P25024 1-350): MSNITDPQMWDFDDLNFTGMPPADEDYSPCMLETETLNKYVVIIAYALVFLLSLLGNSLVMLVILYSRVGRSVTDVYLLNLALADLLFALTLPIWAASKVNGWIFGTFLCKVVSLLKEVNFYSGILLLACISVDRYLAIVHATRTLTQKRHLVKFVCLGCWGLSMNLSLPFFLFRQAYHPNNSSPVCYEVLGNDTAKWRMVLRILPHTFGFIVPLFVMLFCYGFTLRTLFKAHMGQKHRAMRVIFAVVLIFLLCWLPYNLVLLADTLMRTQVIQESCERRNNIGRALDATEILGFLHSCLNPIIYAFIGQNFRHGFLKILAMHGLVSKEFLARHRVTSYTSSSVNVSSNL

For `O=C(O)[C@H](O)Cc1ccc(O)c(O)c1` [DSS, Danshensu], the “thermal stabilization (CETSA)” value (mCXCR1) was “this thermal stabilization between Danshensu and mCXCR1 was dose dependent from ITDRFCETSA” and the “thermal stabilization (CETSA)” value (hCXCR1) was “DSS also binds to hCXCR1 to increase its thermal stability”.
